The record followed here is ChEMBL document CHEMBL3507680, “University of Dundee, Gates Library screen for HepG2 cell viability”.

This data set in a line: Human HepG2 cell viability assay in 384 well format. In kind it is toxicity, cell-based. More on the design: dose 125 nL, time 70.5 hour; cytotoxicity at 70.5 h: concentration not given beside the values. To be noted: HepG2 cells, read-out: Inhibition.

For `CCOCCCC(=O)N1CCN(C(=O)Cc2cccc(OC)c2)CC1`, the cytotoxicity at 70.5 h is -5.09%.
On to `COC(=O)CNC(=O)C(C(C)C)n1cnc2cc(F)c(F)cc21` (stereo unspecified), for which the cytotoxicity at 70.5 h was found to be 5.81%.
For `Clc1ccc(C2(NCc3noc(C4CC4)n3)CCCC2)cc1`, the cytotoxicity at 70.5 h was -0.425%.
`CCOCCOC(C)C(=O)Nc1ccc2ccn(CCN(C)C)c2c1` (stereo unspecified): the cytotoxicity at 70.5 h was -1.63%.
Consider `CN(C)c1nccc(NC(=O)c2ccncc2)n1`, for which the cytotoxicity at 70.5 h was -7.12%.
For the molecule `CC(C)(C)Oc1ccc(C(=O)N2CCOCC2c2ncon2)cc1` (stereo unspecified), the cytotoxicity at 70.5 h is -0.751%.
The same measure for `O=C(c1ccc(SC(F)F)cc1)N1CCOCC1c1ncon1` (stereo unspecified): -3.71%; for `CC(C)CC(NC(=O)C1=CCCC1)C(=O)N1CCC(CO)CC1` (stereo unspecified): 0.304%.
The same measure for `CC(C)c1nc(C2CCCN(C(=O)CN3CCN(C)CC3)C2)no1` (stereo unspecified): -7.22%.
On to `CC(C)=CCS(=O)(=O)Cc1ccn(-c2cccc(F)c2)n1`, for which the cytotoxicity at 70.5 h is -6.79%.
As for `CCn1nc(C)c(CNC(=O)NCC(C)(O)c2ccccc2)c1C` (stereo unspecified), the cytotoxicity at 70.5 h is -3.1%.
Turning to `CC(C)c1nc(C2CCCN(C(=O)CN3CCCNC3=O)C2)no1` (stereo unspecified), the cytotoxicity at 70.5 h is -6.67%.
`CC(C)NC(=O)CCNC(=O)Nc1cnn(-c2ccccc2Cl)c1`: the cytotoxicity at 70.5 h is -6.67%.
`CCOC(=O)c1cnn(-c2cc(C)ccn2)c1N`: the cytotoxicity at 70.5 h amounted to 8.9%.
Then `CCN1CCCN(c2ccc(-n3ccc(C)n3)nn2)CC1`, with 10.6%; and `CC(C)(C(=O)NCCS(N)(=O)=O)c1cccc(Br)c1`, with -6.85%.
As to `CC(CCc1ccccc1F)C(=O)NS(=O)(=O)CC1CC1` (stereo unspecified), the cytotoxicity at 70.5 h is -0.115%.
`CC(=O)c1c(C)cc(C)c(CS(=O)(=O)c2nccn2C)c1C`: the cytotoxicity at 70.5 h turned out to be 8.95%.
In the case of `CC1CN(S(=O)(=O)c2ccc(F)cc2F)c2cccnc2O1` (stereo unspecified), the cytotoxicity at 70.5 h was -6.28%.
For the molecule `Cc1ccc(S(=O)(=O)N2CC(C)Oc3ncccc32)c(C)c1` (stereo unspecified), the cytotoxicity at 70.5 h was -4.94%.
Then `CCOC(=O)C1CCN(C(=O)CN2CCCC2Cc2ccccc2)CC1` (stereo unspecified), with -17.2%; and `Cn1cc(C2(C)CN(Cc3ccc(N4CCCC4)nc3)CCO2)cn1` (stereo unspecified), with -10.5%; and `CCc1ccc(C(C)NC(=O)CN(C)Cc2ccc(C)o2)cc1` (stereo unspecified), with -15%.
Consider `N#CCCNC(=O)CSc1cc(F)ccc1F`, for which the cytotoxicity at 70.5 h is -9.07%.
With `O=C(NCC(O)c1ccc(F)cc1F)c1ccccc1` (stereo unspecified), the cytotoxicity at 70.5 h was -4.27%.
On to `Cc1cccc(C(=O)NCC(O)c2ccc(F)cc2F)c1` (stereo unspecified), for which the cytotoxicity at 70.5 h is -0.893%.
The same measure for `CN(CCC#N)C(=O)CSc1cc(F)ccc1F`: 5.2%.
Then `N#CCCNC(=O)CSc1ccc(F)cc1F`, with -5.86%; and `Cc1nc(NC(=O)C(C)N2CCN(c3cnccn3)CC2)sc1C` (stereo unspecified), with -4.32%.
With `Cc1cccc(C(=O)NCc2ccc(OCCN(C)C)cc2)c1C`, the cytotoxicity at 70.5 h is -6.51%.
Then `COc1c(C)cnc(CNC(=O)c2cc(C)nc3c2c(C)nn3C)c1C`, with -6.5%; and `Cc1cc(CN(C)C(=O)NCc2ccnc(N(C)C)c2)no1`, with -1.17%; and `CCCS(=O)(=O)N1CCC(NCc2c(C)nn(C)c2OC)CC1`, with -7.02%.
As to `COc1c(CNC2CCN(CC(=O)NC3CC3)CC2)c(C)nn1C`, the cytotoxicity at 70.5 h came to 2.59%.
Then `N#Cc1ccccc1N1CCN(C(=O)NCCN2CCOCC2)CC1`, with 0.377%; and `CC(C)Nc1cccc(C(=O)NCC(O)c2cccc(F)c2)c1` (stereo unspecified), with -6.04%.
Take `Fc1ccc(-c2n[nH]cc2CNCCn2cccn2)cc1`: the cytotoxicity at 70.5 h is -4.83%.
For `Fc1ccc(CNCCn2cccn2)c(Cl)c1`, the cytotoxicity at 70.5 h stood at 6.68%.
Turning to `COc1ccc(F)cc1C[S+]([O-])CC(=O)NCc1ccccc1C` (stereo unspecified), the cytotoxicity at 70.5 h is 11%.
`Cc1ncsc1CCN1CCC(N(C)Cc2ncc(C(C)C)o2)C1` (stereo unspecified): the cytotoxicity at 70.5 h was 38.4%.
As to `NC(=O)CN1CCN(c2ccnc3c(F)ccc(F)c23)CC1`, the cytotoxicity at 70.5 h is -1.57%.
